The results in this text go back to ChEMBL document CHEMBL5108067, “Discovery of Potent OTUB1/USP8 Dual Inhibitors Targeting Proteostasis in Non-Small-Cell Lung Cancer” (J Med Chem, 2022).

Structures are written as SMILES. Bounds are passed on as bounds.

For one data set, the system named is EBC-1. The experiment in a line: Antiproliferative activity against human EBC-1 cells harboring wild type KRAS incubated for 72 hrs by MTT assay. It is filed as functional, cell-based. The following applies: EBC-1, 72 h. In general terms: Tetrazolium dyes change colour on reduction, which living cells bring about.
Data set [1] addresses T1, Ubiquitin carboxyl-terminal hydrolase 8 (Homo sapiens) (UniProt P40818).
T1 sequence (whole entry): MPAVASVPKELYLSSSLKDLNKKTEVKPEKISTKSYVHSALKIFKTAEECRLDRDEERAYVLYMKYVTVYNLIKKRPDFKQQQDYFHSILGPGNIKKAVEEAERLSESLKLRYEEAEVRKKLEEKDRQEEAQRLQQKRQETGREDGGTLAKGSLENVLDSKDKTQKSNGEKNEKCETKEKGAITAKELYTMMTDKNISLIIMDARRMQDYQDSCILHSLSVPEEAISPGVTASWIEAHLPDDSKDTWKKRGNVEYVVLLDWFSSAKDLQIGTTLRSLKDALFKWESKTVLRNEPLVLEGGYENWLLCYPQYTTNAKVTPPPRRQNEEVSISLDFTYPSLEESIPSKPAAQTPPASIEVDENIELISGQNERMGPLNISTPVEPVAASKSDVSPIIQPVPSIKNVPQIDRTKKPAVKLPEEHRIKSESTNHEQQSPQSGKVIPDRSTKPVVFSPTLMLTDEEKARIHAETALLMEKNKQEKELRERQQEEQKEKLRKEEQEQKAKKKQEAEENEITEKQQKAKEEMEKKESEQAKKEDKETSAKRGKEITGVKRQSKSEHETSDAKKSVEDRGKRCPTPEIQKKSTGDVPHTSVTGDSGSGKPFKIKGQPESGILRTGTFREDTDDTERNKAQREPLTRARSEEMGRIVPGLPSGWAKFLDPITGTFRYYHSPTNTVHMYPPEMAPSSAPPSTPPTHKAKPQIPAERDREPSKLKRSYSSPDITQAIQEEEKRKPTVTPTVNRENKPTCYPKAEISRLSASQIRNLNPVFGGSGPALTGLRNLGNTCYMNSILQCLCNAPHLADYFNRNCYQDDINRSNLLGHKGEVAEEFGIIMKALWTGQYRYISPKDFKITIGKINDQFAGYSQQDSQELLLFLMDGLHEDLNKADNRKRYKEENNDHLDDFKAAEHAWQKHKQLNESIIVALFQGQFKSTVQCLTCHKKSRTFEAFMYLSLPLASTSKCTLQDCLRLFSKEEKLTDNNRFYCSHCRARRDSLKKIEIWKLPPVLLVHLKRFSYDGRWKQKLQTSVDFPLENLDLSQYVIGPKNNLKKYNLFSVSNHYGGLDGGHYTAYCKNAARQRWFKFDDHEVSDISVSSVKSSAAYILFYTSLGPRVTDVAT
The experiment in a line: Inhibition of N-terminal His-6 tagged USP8 (734 to 1110 residues) (unknown origin) expressed in Escherichia coli BL21 (DE3) cells at 10 nM measured after 3 hrs by fluorescence based Plate reader method relative to control. The following applies: values are per cent of control.

Another data set concerns the target Ataxin-3 (Homo sapiens, UniProt P54252). The experiment in a line: Inhibition of Ataxin-3 (unknown origin) using Ub-Rho measured after 0.5 to 3 hrs.
For a further data set, the system named is NCI-H1975. The experiment in a line: Antiproliferative activity against human NCI-H1975 cells harboring wild type KRAS incubated for 72 hrs by MTT assay. As to conditions: NCI-H1975, 72 h. The class given is functional, cell-based.
In data set [2] the target is Ubiquitin thioesterase OTUB1 (Homo sapiens, UniProt Q96FW1). Nature of the data set: Inhibition of N-terminal His-6 tagged OTUB1 (40 to 271 residues) (unknown origin) expressed in Escherichia coli BL21 (DE3) cells at 10 nM using Ub-Rho measured after 0.5 to 3 hrs by fluorescence based Plate reader method relative to control. The following applies: time 0.5-3 hrs, values are per cent of control.
Sequence of Ubiquitin thioesterase OTUB1 (Q96FW1 whole entry, the tested form may be a part): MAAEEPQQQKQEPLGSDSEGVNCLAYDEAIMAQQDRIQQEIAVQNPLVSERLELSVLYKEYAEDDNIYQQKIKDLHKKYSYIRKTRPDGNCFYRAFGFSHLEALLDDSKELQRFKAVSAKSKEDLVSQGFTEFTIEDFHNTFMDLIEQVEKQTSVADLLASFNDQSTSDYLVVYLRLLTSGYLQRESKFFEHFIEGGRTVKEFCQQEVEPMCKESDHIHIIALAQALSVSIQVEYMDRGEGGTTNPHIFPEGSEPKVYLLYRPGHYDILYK

Data set [3] is described as follows: Aqueous solubility of the compound measured after 24 hr by […] LC-MS/MS analysis. The following applies: buffer. It is filed as physicochemical.
Data set [4] addresses T2, Ubiquitin carboxyl-terminal hydrolase 2 (Homo sapiens, UniProt O75604).
T2 sequence (O75604 whole entry): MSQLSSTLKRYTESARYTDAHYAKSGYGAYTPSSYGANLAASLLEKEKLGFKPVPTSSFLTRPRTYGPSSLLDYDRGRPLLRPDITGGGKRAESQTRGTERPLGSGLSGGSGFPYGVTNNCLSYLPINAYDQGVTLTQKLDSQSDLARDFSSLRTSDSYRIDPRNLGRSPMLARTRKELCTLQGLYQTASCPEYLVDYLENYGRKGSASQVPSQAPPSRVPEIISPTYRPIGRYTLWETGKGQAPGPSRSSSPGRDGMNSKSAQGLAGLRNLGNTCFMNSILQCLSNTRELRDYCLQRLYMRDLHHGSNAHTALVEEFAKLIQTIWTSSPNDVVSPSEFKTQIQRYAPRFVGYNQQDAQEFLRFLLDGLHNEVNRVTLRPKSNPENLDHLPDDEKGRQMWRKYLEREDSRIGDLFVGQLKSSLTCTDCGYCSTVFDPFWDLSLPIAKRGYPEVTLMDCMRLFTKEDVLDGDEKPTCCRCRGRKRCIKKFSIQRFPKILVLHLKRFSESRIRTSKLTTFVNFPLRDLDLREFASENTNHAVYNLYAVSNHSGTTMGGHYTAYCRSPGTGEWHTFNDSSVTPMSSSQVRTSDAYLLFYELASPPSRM
The experiment in a line: Inhibition of USP2 (unknown origin) using Ub-Rho measured after 0.5 to 3 hrs.

The target of data set [5] is Ubiquitin carboxyl-terminal hydrolase 7 (Homo sapiens, UniProt Q93009). Nature of the data set: Inhibition of USP7 (unknown origin) using Ub-Rho measured after 0.5 to 3 hrs.
Sequence of Ubiquitin carboxyl-terminal hydrolase 7 (Q93009 whole entry): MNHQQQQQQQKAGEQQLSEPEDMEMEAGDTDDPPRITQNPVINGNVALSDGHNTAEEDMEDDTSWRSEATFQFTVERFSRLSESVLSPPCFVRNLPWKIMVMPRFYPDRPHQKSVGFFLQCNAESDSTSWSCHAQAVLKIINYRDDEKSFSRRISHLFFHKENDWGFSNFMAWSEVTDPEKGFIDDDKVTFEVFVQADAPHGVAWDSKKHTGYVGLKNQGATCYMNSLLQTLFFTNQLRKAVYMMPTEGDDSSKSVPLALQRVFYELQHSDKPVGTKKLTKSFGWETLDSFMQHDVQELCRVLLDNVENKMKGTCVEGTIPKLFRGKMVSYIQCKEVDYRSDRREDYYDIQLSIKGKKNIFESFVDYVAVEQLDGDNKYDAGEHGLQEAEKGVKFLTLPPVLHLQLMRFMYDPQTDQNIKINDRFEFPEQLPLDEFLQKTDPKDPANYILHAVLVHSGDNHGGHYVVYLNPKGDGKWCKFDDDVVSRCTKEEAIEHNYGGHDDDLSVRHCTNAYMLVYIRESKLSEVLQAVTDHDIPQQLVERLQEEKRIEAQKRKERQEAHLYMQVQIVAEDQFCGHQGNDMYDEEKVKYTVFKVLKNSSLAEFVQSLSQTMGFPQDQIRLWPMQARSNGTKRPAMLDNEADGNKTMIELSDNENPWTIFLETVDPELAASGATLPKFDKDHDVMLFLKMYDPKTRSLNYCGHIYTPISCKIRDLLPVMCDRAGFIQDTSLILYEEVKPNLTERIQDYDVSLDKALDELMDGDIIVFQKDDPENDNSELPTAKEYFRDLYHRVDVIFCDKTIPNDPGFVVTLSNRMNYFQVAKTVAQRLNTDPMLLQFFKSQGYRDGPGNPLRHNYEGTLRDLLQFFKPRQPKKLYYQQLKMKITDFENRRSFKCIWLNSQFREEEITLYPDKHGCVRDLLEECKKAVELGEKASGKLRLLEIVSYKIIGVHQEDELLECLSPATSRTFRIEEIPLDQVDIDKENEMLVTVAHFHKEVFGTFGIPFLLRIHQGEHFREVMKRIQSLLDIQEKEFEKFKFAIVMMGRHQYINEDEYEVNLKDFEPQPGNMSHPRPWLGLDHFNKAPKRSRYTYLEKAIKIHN
In the next data set the test system is A549. The experiment in a line: Antiproliferative activity against human A549 cells harboring KRAS mutant incubated for 72 hrs by MTT assay. As to conditions: A549, 72 h. It is filed as functional, cell-based.

Sequence of Ataxin-3 (P54252 whole entry): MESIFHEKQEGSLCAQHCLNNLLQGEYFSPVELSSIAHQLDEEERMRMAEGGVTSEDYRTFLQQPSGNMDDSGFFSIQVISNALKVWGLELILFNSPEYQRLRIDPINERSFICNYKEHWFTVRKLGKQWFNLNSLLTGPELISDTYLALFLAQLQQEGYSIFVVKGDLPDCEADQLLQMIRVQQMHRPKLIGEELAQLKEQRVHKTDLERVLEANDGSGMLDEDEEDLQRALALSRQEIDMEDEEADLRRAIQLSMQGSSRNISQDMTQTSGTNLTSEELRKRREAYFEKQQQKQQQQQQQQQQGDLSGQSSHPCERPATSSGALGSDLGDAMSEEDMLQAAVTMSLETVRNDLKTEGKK

As to `CN1CC[C@@H](Oc2ccc(Cl)c(-c3nc4c(o3)C(=O)c3ccccc3C4=O)c2)C1`, the concentration for half-maximal inhibition (IC50) (in general, the midpoint of a concentration-inhibition curve) is 138 nM in the data set with EBC-1; more than 10000 nM on Ataxin-3; 88 nM with NCI-H1975; 6200 nM in [4]; more than 10000 nM in [5]; 701 nM in the data set with A549. The residual activity (commonly the share of the control activity or signal that is left under treatment) in data set [1] came out at 35.8%; in data set [2], 28.9%. For the same molecule, in [3], the solubility result is on record as “Soluble”.

As for `CN1CC[C@@H](Oc2ccc(Cl)c(-c3nc4c(o3)C(=O)c3ccccc3C4=O)c2F)C1`, the IC50 with EBC-1 was 176 nM; against Ataxin-3 it was more than 10000 nM; in the data set on NCI-H1975 it was 121 nM; in data set [4], more than 10000 nM; in [5] it was more than 10000 nM; with A549, 1260 nM. The residual activity in [1] was 37.2%; in data set [2] it was 10.7%. Besides, the solubility result in data set [3] is given as “Soluble”.

With `CN1CC[C@@H](Oc2ccc(F)c(-c3nc4c(o3)C(=O)c3ccccc3C4=O)c2Cl)C1`, the IC50 with EBC-1 is 172 nM; against Ataxin-3 it was more than 10000 nM; with NCI-H1975, 118 nM; in data set [4], 3800 nM; in data set [5], more than 10000 nM; with A549, 1000 nM. Moreover, the residual activity came to 21.7% in data set [1] and 10.5% in data set [2]. Further, the solubility entry in data set [3] was “Soluble”.

`O=C1c2ccccc2C(=O)c2oc(-c3cccnc3)nc21`: the concentration for half-maximal inhibition (IC50) with EBC-1 was 122 nM; against Ataxin-3, more than 10000 nM; in the data set with NCI-H1975 it was 98 nM; in data set [4] it was 5100 nM; in [5], more than 10000 nM; with A549, 662 nM. For the same molecule, the residual activity in data set [1] was 43.4%; in data set [2], 42.4%.
